# No end group written: not given here.
# Assays:
# [1] = system: AtproPep1 gene expression; experiment: Hormone treatments of intact plants, RT-PCR of AtproPep1 and paralogs; type: in vivo, Arabidopsis thaliana; conditions: for expression of AtproPep1 paralogs after spraying: At5g64905, At5g64900, At5g64890, At5g09980; for expression of the AtproPep1 gene in intact plants: sprayed: MeJA 250 μM, ethephon 7 mM, within an hour
# Method: Plant stress and hormone treatments. To examine effects of cold stress, plants were placed in a refrigerated growth chamber set to 2° C. To simulate drought stress conditions, plants grown under standard growth chamber conditions were grown without watering. Methyl jasmonate (Bedoukian Research Inc., Danbury Conn.) was applied as a 625 μM solution in 0.1% Triton X-100 to the upper surface of leaves and the plants were incubated in plexiglass boxes. Methyl salicylate (Sigma-Aldrich, St. Louis Mo.), was applied to leaf surfaces at 2 mM in a 0.1% Triton X-100 solution. Ethephon (Phytotechnology Laboratories, Shawnee Mission Kans.) was sprayed on plants as a 7 mM solution in 0.1% Triton X-100 (Sigma-Aldrich, St. Louis Mo.). ABA effects were analyzed by spraying plants with a 100 μM solution (mixed isomer, Sigma-Aldrich, St. Louis Mo.) in 0.1% Triton X-100 (Denekamp and Smeekens, Plant Physiol. 132, 1415-1423, 2003).
# Semi-quantitative RT-PCR analysis of relative gene expression levels. RNA was isolated using Trizol reagent and manufacturer's instructions (Invitrogen. Carlsbad Calif.), and 2 μg of RNA template was reverse transcribed with a RETROscript kit (Ambion, Austin Tex.). PCR reactions were carried out with ExTaq Hot Start polymerase and reagents (Fisher Scientific, Pittsburgh Pa.). The AtproPep1 forward and reverse primers with the respective sequences of 5′ […] 3′ (SEQ ID NO: 59) and 5′ […] 3′ (SEQ ID NO: 60) generated a 310 bp intron-spanning product. Primers to β-tubulin (At5g62690) of 5′ […] 3′ (SEQ ID NO: 73) and 5′ […] 3′ (SEQ ID NO: 74) generated a 681 base pair intron-spanning product. An initial denaturing/polymerase activating step of 5 minutes at 94° C. was followed by 31 repetitions of the following three steps: a thirty second denaturation phase at 94° C., a thirty second annealing period at 55.5° C., and a one minute elongation step at 72° C. The amplification program was terminated with a 10 minute final 72° C. elongation phase.
# Expression analysis of AtproPep1 in response to abiotic and biotic cues. As a first step in seeking a possible function for AtproPep1 and its encoded peptide, the basal expression level of the gene was assessed in leaves, stems, roots and flowers of Arabidopsis plants was studied using semi-quantitative RT-PCR analysis of AtproPep1 gene expression in response to treatment of leaves with MeJA, ethephon, MeSA, and AtPep1. The relative abundance of the proAtPep1 transcript was estimated from the expression of the β-tubulin gene as a control. Leaves were wounded by crushing once across the mid-vein with a hemostat. Plants were sprayed with a 250 μM solution of MeJA in 0.1% Triton X-100; with a […] solution of MeSA in 0.1% Triton X-100 or with a 7 mM solution of ethephon in 0.1% Triton X-100. […] Total RNA was extracted and analyzed.
# [2] = system: AtPEPR1 and AtPEPR2 transcripts; experiment: Expression analysis of AtPEPR1 and AtPEPR2 (Northern hybridization, quantitative RT-PCR); type: in vivo, Arabidopsis thaliana; conditions: within 30 min
# Method: Expression analysis of AtPEPR1 and AtPEPR2. […] In order to elucidate the role of AtPEPR2 in AtPeps signal transduction, the gene expression patterns were analyzed in comparison with AtPEPR1.
# [3] = system: GmPROPEP and soybean defense-related gene expression; experiment: Soybean gene expression by semi-quantitative RT-PCR; type: in vivo
# Method: Precursor gene expression of soybean homologues of the AtPep peptide, GmPROPEP1, GmPROPEP2 and GmPROPEP3, were analyzed by semi-quantitative RT-PCR. GmPROPEP2 and GmPROPEP3 were expressed in leaves, stems and roots. GmPROPEP1 was expressed mainly in roots, and very weakly in leaves and stems. The transcripts of GmPROPEP1 increased 4-fold 1 hour after supplying MeJA and 3-fold 8 hours after wounding. The transcripts of GmPROPEP2 increased 5-fold 2 hours after supplying MeJA. GmPep1-3 also affected the precursor gene expression. The GmPROPEP1 was induced by infiltration of GmPep1-3 (50 nM), and GmPROPEP2 was induced by GmPep2 (50 nM) and GmPep3 (50 nM) infiltration.
# To examine whether GmPep1-3 are involved in defense responses, expression of soybean defense-related genes were analyzed by semi-quantitative RT-PCR after GmPep1-3 infiltration. The transcripts of D6aH/CYP93a1, a biosynthetic enzyme of the soybean phytoalexin glyceollin (Schopfer et al., FEBS Lett. 432: […], 1998), were induced 2 to 3-fold by GmPep1-3 infiltration.
# AtPEPR1 = biological target: T1, AtPEPR1 (Arabidopsis thaliana, UniProt Q9SSL9); experiment: Medium alkalinization of transgenic tobacco cells expressing AtPEPR1; type: cell-based
# T1 construct: Tobacco cells were transformed with a CaMV-35S-AtPEPR1 gene; expressed in transfected cells; host or cells: tobacco suspension-cultured cells (Agrobacterium-mediated, CaMV 35S promoter)
# T1 sequence (Q9SSL9 29-1123): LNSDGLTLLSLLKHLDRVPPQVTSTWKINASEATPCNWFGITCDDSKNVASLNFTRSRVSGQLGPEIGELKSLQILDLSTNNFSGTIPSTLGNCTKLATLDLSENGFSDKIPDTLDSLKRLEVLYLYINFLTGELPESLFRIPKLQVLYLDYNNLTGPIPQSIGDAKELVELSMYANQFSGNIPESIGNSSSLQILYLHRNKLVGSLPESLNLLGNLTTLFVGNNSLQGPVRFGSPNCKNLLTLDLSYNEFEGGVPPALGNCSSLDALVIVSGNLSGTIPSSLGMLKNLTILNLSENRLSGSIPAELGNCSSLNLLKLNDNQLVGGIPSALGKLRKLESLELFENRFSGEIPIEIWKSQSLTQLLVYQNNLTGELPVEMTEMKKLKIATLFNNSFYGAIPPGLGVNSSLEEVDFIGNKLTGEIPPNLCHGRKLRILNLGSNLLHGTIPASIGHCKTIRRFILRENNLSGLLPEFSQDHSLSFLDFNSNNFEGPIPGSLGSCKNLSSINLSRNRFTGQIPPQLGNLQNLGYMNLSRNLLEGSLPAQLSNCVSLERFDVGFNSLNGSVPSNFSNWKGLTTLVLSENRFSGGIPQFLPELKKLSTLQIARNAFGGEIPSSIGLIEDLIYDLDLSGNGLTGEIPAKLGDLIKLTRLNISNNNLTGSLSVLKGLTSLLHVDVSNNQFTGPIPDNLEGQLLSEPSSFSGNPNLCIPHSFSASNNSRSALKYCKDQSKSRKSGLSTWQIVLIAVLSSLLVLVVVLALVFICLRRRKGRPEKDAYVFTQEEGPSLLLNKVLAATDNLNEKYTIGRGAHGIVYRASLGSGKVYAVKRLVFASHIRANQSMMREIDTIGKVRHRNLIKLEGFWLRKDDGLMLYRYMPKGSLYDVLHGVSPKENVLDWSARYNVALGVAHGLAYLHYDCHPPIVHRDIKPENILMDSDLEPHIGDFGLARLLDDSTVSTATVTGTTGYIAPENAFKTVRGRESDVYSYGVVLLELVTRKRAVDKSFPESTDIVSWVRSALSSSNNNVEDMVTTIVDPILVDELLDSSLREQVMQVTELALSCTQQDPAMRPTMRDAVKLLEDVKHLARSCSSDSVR
# Excerpt: Tobacco cells were transformed with a CaMV-35S-AtPEPR1 gene to determine whether the foreign receptor protein was targeted to the cell surface, where, in response to AtPep1, it would activate intracellular signaling to effect the alkalinization of the medium of the transgenic tobacco cells. Expression of the AtPEPR1 gene was confirmed by RT-PCR analysis of RNA from three independently transformed tobacco cell lines. […] AtPep2-7 was also supplied to the transgenic tobacco cells expressing AtPEPR1.
# (§1) To clarify whether AtPEPR2 binds to AtPep1, the AtPEPR2 coding region was fused to the CaMV 35S promoter and introduced into tobacco suspension-cultured cells by Agrobacterium. Tobacco cells expressing AtPEPR1 and GUS genes were also created as positive and negative controls, respectively. […] These transgenic lines were analyzed for alkalinizing activity as previously described (Pearce et al., Proc. Natl. Acad. Sci. USA 98, 12843-12847, 2001).
# (§2) The response to all AtPep peptides in transgenic tobacco cells expressing either AtPEPR1 or AtPEPR2 was analyzed by the medium alkalinization assay.
# OsPEPR1 = experiment: Medium alkalinization of transgenic tobacco cells expressing OsPEPR1; type: cell-based, rice
# Chain of OsPEPR1 (as listed by the source): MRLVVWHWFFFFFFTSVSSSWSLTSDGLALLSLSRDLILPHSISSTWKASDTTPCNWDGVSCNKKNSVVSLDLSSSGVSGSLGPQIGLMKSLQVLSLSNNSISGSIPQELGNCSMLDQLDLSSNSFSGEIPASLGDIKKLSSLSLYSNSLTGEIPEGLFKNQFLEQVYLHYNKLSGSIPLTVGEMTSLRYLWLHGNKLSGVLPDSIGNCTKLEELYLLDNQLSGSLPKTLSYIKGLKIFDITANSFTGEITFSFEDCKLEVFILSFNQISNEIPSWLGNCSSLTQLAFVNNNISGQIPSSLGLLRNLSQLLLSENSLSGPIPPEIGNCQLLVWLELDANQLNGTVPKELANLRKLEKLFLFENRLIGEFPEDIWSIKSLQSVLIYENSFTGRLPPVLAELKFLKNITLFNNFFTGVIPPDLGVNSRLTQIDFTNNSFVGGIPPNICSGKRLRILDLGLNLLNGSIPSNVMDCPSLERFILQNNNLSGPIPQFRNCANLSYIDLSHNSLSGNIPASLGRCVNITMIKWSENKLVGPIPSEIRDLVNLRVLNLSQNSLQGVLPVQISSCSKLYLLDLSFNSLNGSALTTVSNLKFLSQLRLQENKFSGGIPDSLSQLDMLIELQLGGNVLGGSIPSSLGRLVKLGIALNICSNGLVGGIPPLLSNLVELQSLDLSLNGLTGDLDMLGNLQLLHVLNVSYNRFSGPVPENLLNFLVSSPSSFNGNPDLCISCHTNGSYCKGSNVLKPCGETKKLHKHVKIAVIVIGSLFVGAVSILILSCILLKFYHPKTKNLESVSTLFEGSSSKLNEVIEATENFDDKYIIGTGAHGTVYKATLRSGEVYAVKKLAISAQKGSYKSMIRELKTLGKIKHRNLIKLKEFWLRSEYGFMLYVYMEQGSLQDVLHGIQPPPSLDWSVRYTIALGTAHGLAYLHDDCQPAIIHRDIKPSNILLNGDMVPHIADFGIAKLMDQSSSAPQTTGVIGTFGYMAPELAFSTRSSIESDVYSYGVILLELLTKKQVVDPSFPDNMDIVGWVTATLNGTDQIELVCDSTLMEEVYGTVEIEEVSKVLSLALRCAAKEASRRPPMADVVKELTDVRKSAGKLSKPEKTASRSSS
# Excerpt: (§3) We identified rice homologues of AtPEPR1 in the Rice Annotation Project database (see the website located at www.rapdb.dna.affrc.go.jp). The rice homologues, OsPEPR1 (Os08g0446200) and OsPEPR2 (Os08g0446400), have 60% and 62% amino acid similarities, respectively. The OsPEPR1 has 26 LRRs in the extracellular region, which is the same as AtPEPR1. The OsPEPR2 has a shorter extracellular region with 22 LRRs. Transgenic tobacco cells expressing either OsPEPR1 or OsPEPR2 were created to examine the possibility of receptor binding to monocot peptides. OsPep3a, OsPep3b, OsPep3c, ZmPep1 and ZmPep4a were supplied to suspension cultured transgenic tobacco cells, and medium pH was measured. OsPep3a, OsPep3b, ZmPep1 and ZmPep4a caused medium alkalinization in OsPEPR1 expressing cells with a 1.2 pH unit increase and a half-maximal activity of 0.25 nM.
# OsPEPR2 = experiment: Medium alkalinization of transgenic tobacco cells expressing OsPEPR2; type: cell-based, rice
# Chain of OsPEPR2 (as listed by the source): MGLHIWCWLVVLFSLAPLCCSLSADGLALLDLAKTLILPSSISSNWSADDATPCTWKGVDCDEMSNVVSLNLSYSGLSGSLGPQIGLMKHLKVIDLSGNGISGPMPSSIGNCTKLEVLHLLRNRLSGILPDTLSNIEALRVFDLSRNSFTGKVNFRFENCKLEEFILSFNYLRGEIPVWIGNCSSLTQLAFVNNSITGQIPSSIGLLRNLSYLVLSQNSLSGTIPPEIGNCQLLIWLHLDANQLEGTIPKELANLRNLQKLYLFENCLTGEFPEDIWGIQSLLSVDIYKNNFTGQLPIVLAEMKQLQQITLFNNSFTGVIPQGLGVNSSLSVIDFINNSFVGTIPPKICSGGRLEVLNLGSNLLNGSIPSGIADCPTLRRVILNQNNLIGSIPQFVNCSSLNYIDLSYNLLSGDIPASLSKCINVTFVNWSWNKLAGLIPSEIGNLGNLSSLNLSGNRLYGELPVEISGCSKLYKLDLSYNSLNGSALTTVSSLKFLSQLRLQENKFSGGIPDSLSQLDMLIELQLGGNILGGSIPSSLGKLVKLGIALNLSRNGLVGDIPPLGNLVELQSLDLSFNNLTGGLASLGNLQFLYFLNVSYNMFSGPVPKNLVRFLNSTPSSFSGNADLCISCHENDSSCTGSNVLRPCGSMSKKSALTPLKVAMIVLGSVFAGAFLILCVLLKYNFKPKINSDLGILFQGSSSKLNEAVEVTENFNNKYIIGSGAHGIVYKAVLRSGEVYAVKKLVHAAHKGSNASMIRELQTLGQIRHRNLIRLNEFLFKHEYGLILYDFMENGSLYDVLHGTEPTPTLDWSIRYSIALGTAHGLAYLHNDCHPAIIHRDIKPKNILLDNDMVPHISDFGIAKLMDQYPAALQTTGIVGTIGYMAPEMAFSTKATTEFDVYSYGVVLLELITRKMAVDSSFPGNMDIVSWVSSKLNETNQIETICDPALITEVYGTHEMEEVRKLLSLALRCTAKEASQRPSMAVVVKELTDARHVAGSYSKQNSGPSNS
# Excerpt: as §3
# AtPEPR2 = biological target: T2, AtPEPR2 (Arabidopsis thaliana, UniProt Q9FZ59); experiment: Medium alkalinization of transgenic tobacco cells expressing AtPEPR2; type: cell-based
# T2 construct: the AtPEPR2 coding region was fused to the CaMV 35S promoter and introduced into tobacco suspension-cultured cells; expressed in transfected cells; host or cells: tobacco suspension-cultured cells, transformed by Agrobacterium, kanamycin-selected
# T2 sequence (Q9FZ59 27-1088): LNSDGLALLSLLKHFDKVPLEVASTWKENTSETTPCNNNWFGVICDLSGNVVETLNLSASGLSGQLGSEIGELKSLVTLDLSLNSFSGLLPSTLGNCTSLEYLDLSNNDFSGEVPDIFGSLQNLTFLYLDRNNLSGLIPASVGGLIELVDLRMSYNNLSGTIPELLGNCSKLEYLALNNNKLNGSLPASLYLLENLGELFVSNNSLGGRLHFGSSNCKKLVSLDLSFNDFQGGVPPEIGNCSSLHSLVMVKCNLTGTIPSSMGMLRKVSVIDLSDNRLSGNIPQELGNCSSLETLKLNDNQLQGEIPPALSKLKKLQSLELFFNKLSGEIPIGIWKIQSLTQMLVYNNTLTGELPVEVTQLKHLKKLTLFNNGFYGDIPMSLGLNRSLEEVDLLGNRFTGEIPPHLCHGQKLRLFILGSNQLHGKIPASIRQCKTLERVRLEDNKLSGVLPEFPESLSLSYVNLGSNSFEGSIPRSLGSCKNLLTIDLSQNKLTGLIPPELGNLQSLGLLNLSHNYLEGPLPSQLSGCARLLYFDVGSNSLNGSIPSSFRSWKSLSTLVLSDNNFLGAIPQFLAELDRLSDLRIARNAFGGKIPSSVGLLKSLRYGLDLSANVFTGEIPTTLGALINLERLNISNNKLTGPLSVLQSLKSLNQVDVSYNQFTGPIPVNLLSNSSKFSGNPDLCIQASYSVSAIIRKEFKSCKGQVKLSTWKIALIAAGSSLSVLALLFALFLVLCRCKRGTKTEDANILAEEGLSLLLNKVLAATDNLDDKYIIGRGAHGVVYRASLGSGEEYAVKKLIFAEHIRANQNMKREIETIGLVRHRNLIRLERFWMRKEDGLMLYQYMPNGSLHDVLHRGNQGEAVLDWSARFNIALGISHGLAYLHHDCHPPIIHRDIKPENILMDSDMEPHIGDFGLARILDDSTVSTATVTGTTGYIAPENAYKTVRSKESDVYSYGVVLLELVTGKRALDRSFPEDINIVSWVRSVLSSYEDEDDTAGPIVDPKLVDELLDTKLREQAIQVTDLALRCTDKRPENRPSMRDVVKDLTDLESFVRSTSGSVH
# Method: as §1, §2
molecule,measurement,setting,value
"CC/C=C\CC1C(=O)CCC1CC(=O)OC (centres unmarked) [MeJA, methyl jasmonate]",expression of AtproPep1 paralogs after spraying,[1],expressed relatively strongly
same,expression of the AtproPep1 gene in intact plants,[1],induced a strong expression
same,induction of AtPEPR1 and AtPEPR2 transcripts,[2],induced
same,increase of GmPROPEP1 transcripts,[3]; 1 hour after supplying,4 fold
same,increase of GmPROPEP2 transcripts,[3]; 2 hours after supplying,5 fold
"COC(=O)c1ccccc1O [MeSA, methyl salicylate, reference compound]",expression of AtproPep1 paralogs after spraying,[1],strongly induced only two of the genes
O=P(O)(O)CCCl [ethephon],expression of the AtproPep1 gene in intact plants,[1],induced a strong expression
"EIKARGKNKTKPTPSSGKGGKHN [AtPep3, DNKAKSKKRDKEKPSSGRPGQTN]",maximal change,AtPEPR1; AtPEPR1 expressing tobacco cells,1.2 pH units
same,induction of AtPEPR1 and AtPEPR2 transcripts,[2],strong inducer
SLAGANVLVRDAPPETGGGPHHN (SLAGANVLVRDAPPETGGGPHHN) [OsPep3c],medium alkalinization activity,OsPEPR1,did not show any activity
same,medium alkalinization activity,OsPEPR2,weak activity
same,medium pH increase,OsPEPR2; peptide at 250 nM,0.5 pH unit
"SLNVMRKGIRKQPVSSGKRGGVN [AtPep2, SLNVMRKGIRKQPVSSGKRGGVN]",EC50,AtPEPR1,~0.25 nM
same,EC50,AtPEPR2,~0.25 nM

# Source: patent US8686224B2, “Plant defense signal peptides” (priority 2005, dated 2014)
